Laboratory results as given in US9642861B2, “Methods of treating oral mucositis” (priority 2006, dated 2017).
“And” between values parts separate entries of the source, which are not always exact repeats. Equal entries are not always repeated.

Test system: oral mucositis induced in hamsters by acute radiation (40 Gy to left buccal cheek pouch)
Assay: ACT-03 (Example 2): acute radiation model of oral mucositis in hamsters, mucositis scoring
Type: in vivo, Syrian Golden Hamsters
Set-up: key to Mucositis score / Mucositis Scores: 0: Pouch completely healthy. No erythema or vasodilation.; 1: Light to severe erythema and vasodilation. No erosion of mucosa.; 2: Severe erythema and vasodilation. Erosion of superficial aspects of mucosa leaving denuded areas. Decreased stippling of mucosa.; 3: Formation of off-white ulcers in one or more places. Ulcers may have a yellow/gray due to pseudomembrane. Cumulative size of ulcers should equal about ¼ of the pouch. Severe erythema and vasodilation.; 4: Cumulative seize of ulcers should equal about ½ of the pouch. Loss of pliability. Severe erythema and vasodilation.; 5: Virtually all of pouch is ulcerated. Loss of pliability (pouch can only partially be extracted from mouth); peak mean mucositis score: scale not given here
Conditions: for Mucositis Scores: first study, single animal, blinded scorer; for Mucositis score: individual animal, 2 blinded scorers
Description: The acute radiation model in hamsters, developed by the Principal Investigator, has proven to be an accurate, efficient and cost-effective technique to provide a preliminary evaluation of anti-mucositis compounds (9). The course of mucositis in this model is well defined and results in peak scores approximately 14-16 Days following radiation. The acute model has little systemic toxicity, resulting in few hamster deaths, thus permitting the use of smaller groups (N=7-8) for initial efficacy studies. It has also been used to study specific mechanistic elements in the pathogenesis of mucositis. Molecules that show efficacy in the acute radiation model may be further evaluated in the more complex models of fractionated radiation, chemotherapy, or concomitant therapy.
In this study, an acute radiation dose of 40 Gy on day 0 was administered locally to the cheek pouch. Clinically significant mucositis was observed on days 12 through 28.
Seventy-two male Syrian Golden Hamsters were divided randomly into 9 groups of 8 animals and given an acute radiation dose of 40 Gy directed to their left buccal cheek pouch. This was accomplished by anesthetizing the animals and everting the left buccal pouch, while protecting the rest of the animal with a lead shield. […] Mucositis was evaluated clinically starting on Day 6, and continued on alternate days until day 28.
The grade of mucositis was scored, beginning on day 6, and for every second day thereafter, through and including day 28 (for scoring scheme, see Table 6 and FIG. 8). The effect on mucositis of each drug treatment compared to ip vehicle-treated controls was assessed according to the following parameters:
The difference in the number of days hamsters in each group have ulcerative (score≧3) mucositis.
On each evaluation day, the number of animals with a blinded mucositis score of ≧3 in each drug treatment group was compared to the vehicle-treated control group. Differences were compared on a cumulative basis and statistical significance was determined by chi-square analysis. Efficacy, in this analysis, is defined as a significant reduction in the number of days that a group of animals had ulcerations (scores≧3) when compared to the control group.
For each evaluation day the scores of the control group were compared to those of the treated groups using non-parametric rank sum analysis. Treatment success was considered as a statistically significant lowering of scores in the treated group on 2 or more days from day 6 to day 28.
All seventy-two (72) male Syrian Golden Hamsters were given an acute radiation dose of 40 Gy directed to their left buccal cheek pouch. This was accomplished by anesthetizing the animals and everting the left buccal pouch, while protecting the rest of the animal with a lead shield. […] Mucositis was evaluated clinically starting on day 6, and continuing on alternate days until day 28. The study timeline is depicted in FIG. 7. Dose levels were determined based on the results of a previous acute toxicity study (data not published), and in the prior mucositis study of Example 1, shown in Table 5.
Mucositis was induced using a standardized acute radiation protocol. A single dose of radiation (40 Gy/dose) was administered to all animals on day 0. Radiation was generated with a 250 kilovolt potential (15-ma) source at a focal distance of 50 cm, hardened with a 0.35 mm Cu filtration system. Irradiation targeted the left buccal pouch mucosa at a rate of 3.2 Gy/minute. Prior to irradiation, animals were anesthetized with an intra-peritoneal injection of Ketamine (160 mg/kg) and Xylazine (8 mg/kg). The left buccal pouch was everted, fixed and isolated using a lead shield.
The mucositis score, weight change and survival were measured throughout the study as described above. For the evaluation of mucositis, the animals were anesthetized with isoflurane and the left pouch everted. […]

[1] = group 2: ip 30 mg/kg once daily day −1 to 3
[2] = group 2: ip 30 mg/kg qd day −1 to 3
[3] = group 3: ip 3 mg/kg bid day −1 to 3
[4] = group 4: ip 10 mg/kg bid day −1 to 3
[5] = group 4: ip 10 mg/kg twice daily day −1 to 3
[6] = group 5: ip 30 mg/kg bid day −1 to 3
[7] = group 5: ip 30 mg/kg twice daily day −1 to 3
[8] = group 6: ip 30 mg/kg once daily day 0 to 3
[9] = group 6: ip 30 mg/kg qd day 0 to 3
[10] = group 7: ip 30 mg/kg bid day 0 to 3
[11] = group 7: ip 30 mg/kg twice daily day 0 to 3
[12] = group 8: ip 30 mg/kg twice daily on day 0
[13] = group 9: ip 30 mg/kg bid day 0 & 7

With `[Cl-].[Cl-].[Mn+2].c1cc2nc(c1)CN[C@@H]1CCCC[C@H]1NCCN[C@@H]1CCCC[C@H]1NC2` [M40403] the “Mucositis Scores” value (Group 8: 30 mg/kg/dose twice daily on day 0, day 6, 30 mg/kg) was 0 (4×) and 1 (2×), the “Mucositis Scores” value (Group 8: 30 mg/kg/dose twice daily on day 0, day 8) was 0 and the “Mucositis Scores” value (Group 8: 30 mg/kg/dose twice daily on day 0, day 10, 30 mg/kg) was 0 (3×) and 1 (3×). The “Mucositis Scores” value (Group 8: 30 mg/kg/dose twice daily on day 0, day 12, 30 mg/kg) was 2 (5×) and 1, the “Mucositis Scores” value (Group 8: 30 mg/kg/dose twice daily on day 0, day 14, 30 mg/kg) was 3 (4×) and 2 (2×) and the “Mucositis Scores” value (Group 8: 30 mg/kg/dose twice daily on day 0, day 16, 30 mg/kg) was 2 (4×) and 3 (2×). For the same compound, the “Mucositis Scores” value (Group 8: 30 mg/kg/dose twice daily on day 0, day 18, 30 mg/kg) was 1 (3×) and 2 and 3 (2×), the “Mucositis Scores” value (Group 8: 30 mg/kg/dose twice daily on day 0, day 20, 30 mg/kg) was 2 (2×) and 1 (2×) and 3 (2×) and the “Mucositis Scores” value (Group 8: 30 mg/kg/dose twice daily on day 0, day 22) was 2. For the same compound, the “Mucositis Scores” value (Group 8: 30 mg/kg/dose twice daily on day 0, day 24, 30 mg/kg) was 0 (3×) and 2 (2×) and 1, the “Mucositis Scores” value (Group 8: 30 mg/kg/dose twice daily on day 0, day 26, 30 mg/kg) was 1 (2×) and 0 (3×) and 2 and the “Mucositis Scores” value (Group 8: 30 mg/kg/dose twice daily on day 0, day 28, 30 mg/kg) was 0 (3×) and 1 (3×). For the same compound, the “Mucositis Scores” value (Group 9: 30 mg/kg/dose twice daily on day 0 and on day 7, day 6, 30 mg/kg) was 0 and 1, the “Mucositis Scores” value (Group 9: 30 mg/kg/dose twice daily on day 0 and on day 7, day 8, 30 mg/kg) was 0 and the “Mucositis Scores” value (Group 9: 30 mg/kg/dose twice daily on day 0 and on day 7, day 10, 30 mg/kg) was 1 and 0. The “Mucositis Scores” value (Group 9: 30 mg/kg/dose twice daily on day 0 and on day 7, day 12, 30 mg/kg) was 2, the “Mucositis Scores” value (Group 9: 30 mg/kg/dose twice daily on day 0 and on day 7, day 14, 30 mg/kg) was 2 and the “Mucositis Scores” value (Group 9: 30 mg/kg/dose twice daily on day 0 and on day 7, day 16, 30 mg/kg) was 3. The “Mucositis Scores” value (Group 9: 30 mg/kg/dose twice daily on day 0 and on day 7, day 18, 30 mg/kg) was 3, the “Mucositis Scores” value (Group 9: 30 mg/kg/dose twice daily on day 0 and on day 7, day 20, 30 mg/kg) was 2 and the “Mucositis Scores” value (Group 9: 30 mg/kg/dose twice daily on day 0 and on day 7, day 22, 30 mg/kg) was 2 (2×) and 0. The “Mucositis Scores” value (Group 9: 30 mg/kg/dose twice daily on day 0 and on day 7, day 24, 30 mg/kg) was 0 and 1 (2×), the “Mucositis Scores” value (Group 9: 30 mg/kg/dose twice daily on day 0 and on day 7, day 26, 30 mg/kg) was 2 and 1 (2×) and the “Mucositis Scores” value (Group 9: 30 mg/kg/dose twice daily on day 0 and on day 7, day 28, 30 mg/kg) was 1 and 2 and 0. For the same compound, the “day of peak mean mucositis score” value [1] was 16 days, the “peak mean mucositis score” value [1] was 2.8 and the “Chi Sq v control, days with mucositis score >=3” value (from here on “Chi Sq v control, days”) [2] was 4.4860. The “Days <3 (animal days with a mucositis score below 3)” value [2] was 108, the “Days >=3 (animal days with a mucositis score of three or more)” value [2] was 36 and the “% Days >=3 (percentage of animal days with a mucositis score of 3 or higher)” value (group 2: ip 30 mg/kg qd day −1 to 3, 30 mg/kg) was 25%. The “Chi Sq v control, days” value [3] was 5.3950, the “Days <3 (animal days with a mucositis score below 3)” value [3] was 144 and the “Days >=3 (animal days with a mucositis score of three or more)” value [3] was 48. For the same compound, the “% Days >=3 (percentage of animal days with a mucositis score of 3 or higher)” value (group 3: ip 3 mg/kg bid day −1 to 3, 3 mg/kg) was 25%, the “peak mean mucositis score” value (group 3: ip 3 mg/kg twice daily day −1 to 3) was 2.9 and the “Chi Sq v control, days” value [4] was 1.1996. The “Days <3 (animal days with a mucositis score below 3)” value [4] was 136, the “Days >=3 (animal days with a mucositis score of three or more)” value [4] was 56 and the “% Days >=3 (percentage of animal days with a mucositis score of 3 or higher)” value (group 4: ip 10 mg/kg bid day −1 to 3, 10 mg/kg) was 29.2% and 29.17%. The “day of peak mean mucositis score” value [5] was 16 days, the “peak mean mucositis score” value [5] was 3.0 and the “Chi Sq v control, days” value [6] was 7.229. The “Days <3 (animal days with a mucositis score below 3)” value [6] was 112, the “Days >=3 (animal days with a mucositis score of three or more)” value [6] was 32 and the “% Days >=3 (percentage of animal days with a mucositis score of 3 or higher)” value (group 5: ip 30 mg/kg bid day −1 to 3, 30 mg/kg) was 22.2% and 22.22%. The “day of peak mean mucositis score” value [7] was 16 days, the “peak mean mucositis score” value [7] was 2.8 and the Mucositis score (group 6, day 6) was 1 and 0 (4×). For the same compound, the Mucositis score (group 6, day 8) was 0 (4×) and 1, the Mucositis score (group 6, day 10) was 0 (4×) and 1 and the Mucositis score (group 6, day 12) was 2 (4×) and 0. For the same compound, the Mucositis score (group 6, day 14) was 2 (3×) and 3 (2×), the Mucositis score (group 6, day 16) was 4 and 3 (4×) and the Mucositis score (group 6, day 18) was 4 and 3 (2×) and 2 (2×). The Mucositis score (group 6, day 20) was 4 and 3 (2×) and 2 (2×), the Mucositis score (group 6, day 22) was 4 and 2 (2×) and 0 and 1 and the Mucositis score (group 6, day 24) was 4 and 2 (4×). For the same compound, the Mucositis score (group 6, day 26) was 3 and 2 (3×) and 1, the Mucositis score (group 6, day 28) was 2 (2×) and 0 and 1 (2×) and the “day of peak mean mucositis score” value [8] was 16 days. For the same compound, the “peak mean mucositis score” value [8] was 3.2, the “Chi Sq v control, days” value [9] was 1.029 and the “Days <3 (animal days with a mucositis score below 3)” value [9] was 100. For the same compound, the “Days >=3 (animal days with a mucositis score of three or more)” value [9] was 44, the “% Days >=3 (percentage of animal days with a mucositis score of 3 or higher)” value (group 6: ip 30 mg/kg qd day 0 to 3, 30 mg/kg) was 30.6% and 30.56% and the Mucositis score (group 7, day 6) was 0. The Mucositis score (group 7, day 8) was 0 (2×) and 1, the Mucositis score (group 7, day 10) was 1 and 0 (2×) and the Mucositis score (group 7, day 12) was 2. For the same compound, the Mucositis score (group 7, day 14) was 2, the Mucositis score (group 7, day 16) was 1 (2×) and 2 and the Mucositis score (group 7, day 18) was 1 and 0 and 3. The Mucositis score (group 7, day 20) was 1 (2×) and 0, the Mucositis score (group 7, day 22) was 0 and 1 (2×) and 2 and the Mucositis score (group 7, day 24) was 1 (2×) and 0 (2×). For the same compound, the Mucositis score (group 7, day 26) was 1 (3×) and 0, the Mucositis score (group 7, day 28) was 1 (3×) and 0 and the “Chi Sq v control, days” value [10] was 38.3440. The “Days <3 (animal days with a mucositis score below 3)” value [10] was 174, the “Days >=3 (animal days with a mucositis score of three or more)” value [10] was 18 and the “% Days >=3 (percentage of animal days with a mucositis score of 3 or higher)” value (group 7: ip 30 mg/kg bid day 0 to 3, 30 mg/kg) was 9.4% and 9.38%. For the same compound, the “day of peak mean mucositis score” value [11] was 16 days, the “peak mean mucositis score” value [11] was 2.2 and the “Chi Sq v control, days” value (group 8: ip 30 mg/kg bid day 0) was 25.681. For the same compound, the “Days <3 (animal days with a mucositis score below 3)” value (group 8: ip 30 mg/kg bid day 0) was 166, the “Days >=3 (animal days with a mucositis score of three or more)” value (group 8: ip 30 mg/kg bid day 0) was 26 and the “% Days >=3 (percentage of animal days with a mucositis score of 3 or higher)” value (group 8: ip 30 mg/kg bid day 0, 30 mg/kg) was 13.5% and 13.54%. The “day of peak mean mucositis score” value [12] was 14 days, the “peak mean mucositis score” value [12] was 2.4 and the “Chi Sq v control, days” value [13] was 19.113. For the same compound, the “Days <3 (animal days with a mucositis score below 3)” value [13] was 142, the “Days >=3 (animal days with a mucositis score of three or more)” value [13] was 26 and the “% Days >=3 (percentage of animal days with a mucositis score of 3 or higher)” value (group 9: ip 30 mg/kg bid day 0 & 7, 30 mg/kg) was 15.5% and 15.48%. For the same compound, the “peak mean mucositis score” value (group 9: ip 30 mg/kg twice daily on day 0 and day 7) was 2.4.
